One may read the EC50 as the concentration that produces a half-maximal response. A word on the IC50: it is the concentration at which inhibition is half-maximal. A higher IC50 goes with weaker potency.

One experiment has as its system anti-IgM-induced CD69. The experiment in a line: Human PBMC anti-IgM-induced CD69 assay. Type of experiment: cell-based. The following applies: CD19+ B cells, 2 h compound, 18 h anti-IgM, read-out: hPBMC: anti-IgM-induced CD69 EC50. The procedure:
Whole blood was collected in heparin-coated Vacutainer tubes (BD Biosciences, San Jose, Calif.) and used for isolation of PBMCs using Ficoll-Hypaque (Pharmacia, Uppsala, Sweden). Isolated PBMCs were cryopreserved in 90% FCS/10% DMSO until later use.
Cells from cryogenic storage were thawed in a 37° C. water bath, diluted with RPMI/1% FCS, washed 2 times, and then plated at 2×10^5 cells per well in RPMI/10% FCS in 96 well plates.
Serial dilutions […] from 10 mM to 316 nM of test compounds are made in 100% DMSO, followed by a 100-fold dilution into RPMI/1% FCS. For each well, 10 μL was then transferred to the deep well plate containing 90 μL of PBMC cells. […]
Following stimulation with anti-IgM, PBMCs were incubated on ice for 30 min with anti-CD69-FITC, anti-CD19-BV421 (BD Biosciences #555530 and #562440, respectively) and 7AAD (Life Technologies # A1310). Flow cytometry was performed and fluorescence values were obtained from the CD69-FITC channel in CD19+ gated life B cells. EC50 values are determined by curve fitting of the experimental results using GraphPad Prism.
PBMC assay: Cryopreserved PBMC were thawed, washed, and suspended at 2×10^5 cells/well in RPMI+10% FBS in 96-well plates. […] EC50 values were determined by curve fitting of the experimental results using Dotmatics. […]

A further experiment addresses BTK (Homo sapiens (Human), UniProt Q06187). The experiment in a line: BTK enzyme activity, IMAP assay. Type of experiment: biochemical. The following applies: 60 min pre-incubation, 5 μM ATP. The procedure:
BTK enzyme activity is measured using the IMAP (immobilized metal ion affinity-based fluorescence polarization) assay as outlined below. BTK enzyme (His-BTK (Millipore catalog #14-552)), is diluted to 0.4 U/mL in KR buffer (10 mM Tris-HCl, 10 mM MgCl2, 0.01% Tween-20, 0.05% NaN3, 1 mM DTT, 2 mM MnCl2, pH 7.2). Serial dilutions log 10 from 2 mM to 63.2 nM of test compounds are made in 100% DMSO. The dilutions in DMSO are then diluted 50-fold in KR-buffer. Final compound concentration range in the assay ranged from 10 μM to 0.316 nM. The assay is performed as follows: 5 μL/well of test compound in KR buffer (final DMSO concentration in the assay is […]) is mixed with 5 µl/well of 0.4 U/mL BTK enzyme (final concentration in the assay is 0.1 U/mL). […] After 60 min incubation at room temperature in the dark the FP signal is read. Fluorescence at 535 nm is measured using parallel and perpendicular filters to determine differences in rotation due to binding of the phosphorylated substrate peptide to the beads. Values are calculated as percentage of the difference in readout (AmPi) of the controls with and without ATP. IC50 values are determined by curve fitting of the experimental results in Dotmatics.

The next experiment concerns the target TXK (Homo sapiens (Human), UniProt P42681). The experiment in a line: TXK Z'-LYTE kinase assay. Particulars: 1 h pre-incubation, Km ATP. Type of experiment: biochemical. The procedure:
BMX, TXK, EGFR, ERBB2, ERBB4, JAK3, BLK kinase activity was measured using the Z′-LYTE assay at Thermo Fisher. A 10-point dose response (final concentration in assay ranged from 10 μM to 0.5 nM in 3-fold dilution per dilution step) was generated with 1 h incubation of the test compound with the kinase prior to initiation of the kinase reaction by the addition of ATP. ATP concentration in the assay was Km ATP for the different kinases. IC50 values are determined by curve fitting of the experimental results at Thermo Fisher.

The next experiment relates to anti-IgD-induced CD69. In words: Human whole blood anti-IgD-induced CD69 assay. Particulars: B-cell, CD19+ B cells, 18h anti-IgD, read-out: hWB: anti-IgD-induced CD69 EC50. Type of experiment: cell-based. The procedure: WB assay: Forty-five μL blood was diluted 1:1 in RPMI+1% FBS and incubated with test compound, as described above. Blood cells were stimulated with 10 μg/mL mouse anti-human anti-IgD antibody (BD Biosciences, final concentration in assay 10 μg/mL) and incubated for 18h. Cells were stained with CD69-FITC, CD86-PE, and CD19-BV421 (BD Biosciences) for 15 minutes at room temperature, followed by RBCs lysis with FACS Lysing Solution (BD Biosciences). Cells were washed 3 times with 1 mL/well PBS+0.5% BSA, followed by flow cytometric analyses. Median fluorescence intensity values for CD69 were obtained from the CD19+B lymphocyte gate using FCSExpress analyses software (De Novo Software). EC50 values were determined by curve fitting of the experimental results using Dotmatics.
The potency of BTK inhibitors in primary B cells can be assessed in assays that evaluate functional changes after BCR-activation in the presence of inhibitor. Inhibition of specific phosphorylated epitopes on signaling proteins and more distal measures of BCR activation such as increased expression of CD86 (B7-2) and CD69 on the cell surface can be measured by flow cytometry (see Report R2013003A). In this study, effects of M27 on CD69 expression were assessed.

Chain of TXK (P42681 whole entry): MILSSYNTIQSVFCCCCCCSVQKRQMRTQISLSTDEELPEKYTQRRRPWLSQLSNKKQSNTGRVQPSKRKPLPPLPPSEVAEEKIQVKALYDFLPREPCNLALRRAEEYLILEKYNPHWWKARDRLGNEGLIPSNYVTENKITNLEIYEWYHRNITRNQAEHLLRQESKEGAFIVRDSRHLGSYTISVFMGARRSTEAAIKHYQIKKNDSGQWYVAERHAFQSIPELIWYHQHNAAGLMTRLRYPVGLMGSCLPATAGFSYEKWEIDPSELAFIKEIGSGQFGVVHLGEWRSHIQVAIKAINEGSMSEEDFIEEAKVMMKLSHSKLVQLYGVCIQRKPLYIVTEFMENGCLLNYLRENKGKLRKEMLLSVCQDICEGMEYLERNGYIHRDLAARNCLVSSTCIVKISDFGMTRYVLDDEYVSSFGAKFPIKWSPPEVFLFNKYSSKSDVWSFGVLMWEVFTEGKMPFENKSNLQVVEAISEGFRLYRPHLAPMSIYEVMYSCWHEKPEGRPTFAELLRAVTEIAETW
Chain of BTK (Q06187 whole entry): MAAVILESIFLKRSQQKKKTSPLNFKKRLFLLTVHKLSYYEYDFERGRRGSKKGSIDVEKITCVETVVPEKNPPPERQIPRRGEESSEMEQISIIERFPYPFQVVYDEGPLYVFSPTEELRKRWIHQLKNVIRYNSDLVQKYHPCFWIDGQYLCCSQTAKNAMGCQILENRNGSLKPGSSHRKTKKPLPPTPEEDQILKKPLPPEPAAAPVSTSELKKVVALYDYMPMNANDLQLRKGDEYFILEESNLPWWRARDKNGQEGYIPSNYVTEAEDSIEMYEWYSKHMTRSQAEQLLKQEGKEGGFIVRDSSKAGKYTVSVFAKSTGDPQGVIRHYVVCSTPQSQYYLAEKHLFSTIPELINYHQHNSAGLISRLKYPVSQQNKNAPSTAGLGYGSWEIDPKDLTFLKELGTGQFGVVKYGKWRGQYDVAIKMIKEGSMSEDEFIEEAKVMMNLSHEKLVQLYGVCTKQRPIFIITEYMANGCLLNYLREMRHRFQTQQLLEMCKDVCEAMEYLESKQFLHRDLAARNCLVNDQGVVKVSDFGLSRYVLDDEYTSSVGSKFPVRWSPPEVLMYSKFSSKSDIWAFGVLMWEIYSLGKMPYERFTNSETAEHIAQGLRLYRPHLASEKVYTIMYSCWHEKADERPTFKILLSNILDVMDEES

Consider `CC#CC(=O)NCCCC(=O)c1nc(-c2ccc(C(=O)Nc3ccccn3)cc2)c2c(N)nccn12` [Formula (I), 4-(8-amino-3-(4-(but-2-ynamido)butanoyl)imidazo[1,5-a]pyrazin-1-yl)-N-(pyridin-2-yl)benzamide], for which the values for the EC50 in the experiment on anti-IgM-induced CD69 and in the experiment on anti-IgD-induced CD69 were 0.026 ± 0.016 µM and 0.064 ± 0.006 µM, respectively. The IC50 on BTK stood at 0.005 ± 0.001 µM; on TXK, 0.567 ± 0.174 µM.
On the same counts, the results for `CC#CC(=O)NCCCC(=O)c1nc(-c2ccc(C(=O)Nc3ccccn3)c(OC)c2)c2c(N)nccn12` [Formula (II), 4-(8-amino-3-(4-(but-2-ynamido)butanoyl)imidazo[1,5-a]pyrazin-1-yl)-2-methoxy-N-(pyridin-2-yl)benzamide] are 0.019 ± 0.006 µM, 0.137 ± 0.036 µM, 0.0093 µM and 0.059 µM.

(Values after patent publication US10858364B2, “Imidazopyrazine inhibitors of Bruton's tyrosine kinase” (Acerta Pharma B.V., priority 2016, dated 2020).)
